The subject of test [1] is Cabbage Looper (Trichoplusia ni, TRIPNI). The test can be described thus: Bioassays on Cabbage Looper (CL), 128-well diet tray assay. It is filed as in vivo. Particulars: Trichoplusia ni. In short, it runs like this:
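Percent mortality, averaged across eight replicate wells, after second-instar larvae (1–5 per well) fed for five to seven days on diet dosed at 50 μg/cm^2. Compound was applied in acetone-water 90:10 and dried; trays kept vented at 25° C under 14:10 photoperiod.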

For test [2], the system named is Beet Armyworm (Spodoptera exigua, LAPHEG). The test can be described thus: Bioassays on Beet Armyworm (BAW), 128-well diet tray assay. The test is classed as in vivo. Particulars: Spodoptera exigua. A digest of the protocol: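 Second-instar larvae, one to five per well, were placed on artificial diet surface-treated with 50 μg/cm^2 compound in 90:10 acetone-water, eight wells per treatment. Trays were held 5–7 days at 25 °C, 14:10 light-dark. Percent mortality per well was averaged over eight wells.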

[3] abbreviates: Table ABC: Biological Results, species CL, read-out: CL.
Where [4] appears, read: Table ABC: Biological Results, species BAW, read-out: BAW.
Where [5] appears, read: Cabbage Looper, rating class, read-out: CL.
Setting [6] is: Beet Armyworm, rating class, read-out: BAW.
Where [7] appears, read: Cabbage Looper, Table ABC / ABC-DP rating, read-out: CL rating.
The mark [8] stands for this setting: Beet Armyworm, Table ABC / ABC-DP rating, read-out: BAW rating.

Like-named read-outs stand apart in the source and are kept apart here.

For the compound `Nc1c(F)ccc(NC(=O)c2cc(NC(=O)[C@H]3[C@H](c4cc(Cl)c(Cl)c(Cl)c4)C3(Cl)Cl)cc(F)c2Cl)c1F` [F1325, N-(3-Amino-2,4-difluorophenyl)-2-chloro-5-((1R,3R)-2,2-dichloro-3-(3,4,5-trichlorophenyl)cyclopropane-1-carboxamido)-3-fluorobenzamide], the pest or weed control at 50 µg/cm2 in test [1] (setting [3]) and in test [2] (setting [4]) was 50 to 100% each time.

As to `O=C(Nc1ccc(F)cc1F)c1cc(NC(=O)[C@H]2[C@H](c3cc(F)c(F)c(F)c3)C2(Cl)Cl)ccc1Cl` [F1693, 2-Chloro-5-((1R,3R)-2,2-dichloro-3-(3,4,5-trifluorophenyl)cyclopropane-1-carboxamido)-N-(2,4-difluorophenyl)benzamide], the pest or weed control at 50 µg/cm2 in test [1] (setting [5]) and in test [2] (setting [6]) was 50 to 100% throughout.

As to `O=C(Nc1ccc(F)c(NC(=O)C2(C(F)(F)F)CCC2)c1F)c1cc(NC(=O)[C@H]2[C@H](c3ccc(F)c(C(F)(F)F)c3)C2(Cl)Cl)ccc1Cl` [F1849, 2-Chloro-5-((1R,3R)-2,2-dichloro-3-(4-fluoro-3-(trifluoromethyl)phenyl)cyclopropane-1-carboxamido)-N-(2,4-difluoro-3-(1-(trifluoromethyl)cyclobutane-1-carboxamido)phenyl)benzamide], the pest or weed control at 50 µg/cm2 in test [1] (setting [7]) and in test [2] (setting [8]) was 50 to 100% in each case.

For `O=C(Nc1ccc(F)cc1F)c1cc(NC(=O)[C@H]2[C@H](c3ccc(F)c(Cl)c3)C2(Cl)Cl)cc(F)c1F` (relative stereo) [F1209, trans-5-(2,2-Dichloro-3-(3-chloro-4-fluorophenyl)cyclopropane-1-carboxamido)-N-(2,4-difluorophenyl)-2,3-difluorobenzamide], the pest or weed control at 50 µg/cm2 in test [1] (setting [3]) and in test [2] (setting [4]) was 50 to 100% in each case.

As to `CC(=O)Nc1c(F)ccc(NC(=O)c2cc(NC(=O)[C@H]3[C@H](c4ccc(F)c(C(F)(F)F)c4)C3(Cl)Cl)cc(F)c2F)c1F` [F1570, N-(3-Acetamido-2,4-difluorophenyl)-5-((1R,3R)-2,2-dichloro-3-(4-fluoro-3-(trifluoromethyl)phenyl)cyclopropane-1-carboxamido)-2,3-difluorobenzamide], the pest or weed control at 50 µg/cm2 in test [1] (setting [5]) and in test [2] (setting [6]) was 50 to 100% each time.

For the compound `Cc1cc(NC(=O)[C@H]2[C@H](c3cc(Cl)c(Cl)c(Cl)c3)C2(Cl)Cl)cc(C(=O)Nc2cc(NC(=O)C(F)(F)F)c(F)cc2F)c1Cl` [F1499, 2-Chloro-5-((1R,3R)-2,2-dichloro-3-(3,4,5-trichlorophenyl)cyclopropane-1-carboxamido)-N-(2,4-difluoro-5-(2,2,2-trifluoroacetamido)phenyl)-3-methylbenzamide], the pest or weed control at 50 µg/cm2 in test [1] (setting [5]) and in test [2] (setting [6]) was 50 to 100% each time.

Turning to `CN(NC(=O)c1cc(NC(=O)[C@H]2[C@H](c3cc(Cl)cc(Cl)c3)C2(Cl)Cl)ccc1Cl)c1ccccn1` (relative stereo) [F2503, trans-2,2-Dichloro-N-(4-chloro-3-(2-methyl-2-(pyridin-2-yl)hydrazine-1-carbonyl)phenyl)-3-(3,5-dichlorophenyl)cyclopropane-1-carboxamide], the pest or weed control at 50 µg/cm2 in test [1] (setting [7]) and in test [2] (setting [8]) was 50 to 100% each time.

Turning to `CCCC(=O)Nc1c(F)ccc(NC(=O)c2cc(NC(=O)[C@H]3[C@H](c4ccc(Cl)c(C(F)(F)F)c4)C3(Cl)Cl)ccc2Cl)c1F` [F1659, N-(3-Butyramido-2,4-difluorophenyl)-2-chloro-5-((1R,3R)-2,2-dichloro-3-(4-chloro-3-(trifluoromethyl)phenyl)cyclopropane-1-carboxamido)benzamide], the pest or weed control at 50 µg/cm2 in test [1] (setting [5]) and in test [2] (setting [6]) was 50 to 100% in each case.

On to `O=C(Nc1ccc(F)c(NC(=O)C(F)F)c1F)c1cc(NC(=O)[C@H]2[C@H](c3ccc(Cl)c(Br)c3)C2(Cl)Cl)ccc1Cl` [F1411, 5-((1R,3R)-3-(3-Bromo-4-chlorophenyl)-2,2-dichlorocyclopropane-1-carboxamido)-2-chloro-N-(3-(2,2-difluoroacetamido)-2,4-difluorophenyl)benzamide], for which the pest or weed control at 50 µg/cm2 in test [1] (setting [5]) and in test [2] (setting [6]) was 50 to 100% throughout.

Take `Nc1cc(F)c(NC(=O)c2cc(NC(=O)[C@H]3[C@H](c4cc(Cl)c(Cl)c(Cl)c4)C3(Cl)Cl)ccc2Cl)c(F)c1` [F1029, N-(4-Amino-2,6-difluorophenyl)-2-chloro-5-((1R,3R)-2,2-dichloro-3-(3,4,5-trichlorophenyl)cyclopropane-1-carboxamido)benzamide]: the pest or weed control at 50 µg/cm2 in test [1] (setting [3]) and in test [2] (setting [4]) was 50 to 100% throughout.

Consider `O=C(CC1CC1)NNC(=O)c1cc(NC(=O)[C@H]2[C@H](c3cc(Cl)cc(Cl)c3)C2(Cl)Cl)ccc1Cl` (relative stereo) [F2528, trans-2,2-Dichloro-N-(4-chloro-3-(2-(2-cyclopropylacetyl)hydrazine-1-carbonyl)phenyl)-3-(3,5-dichlorophenyl)cyclopropane-1-carboxamide], for which the pest or weed control at 50 µg/cm2 in test [1] (setting [7]) and in test [2] (setting [8]) was 50 to 100% in each case.

Consider `N#CCC(=O)Nc1c(F)ccc(NC(=O)c2cc(NC(=O)[C@H]3[C@H](c4cc(Cl)c(Cl)c(Cl)c4)C3(Cl)Cl)ccc2Cl)c1F` [F1650, 2-Chloro-N-(3-(2-cyanoacetamido)-2,4-difluorophenyl)-5-((1R,3R)-2,2-dichloro-3-(3,4,5-trichlorophenyl)cyclopropane-1-carboxamido)benzamide], for which the pest or weed control at 50 µg/cm2 in test [1] (setting [5]) and in test [2] (setting [6]) was 50 to 100% each time.

In the case of `Nc1c(F)ccc(NC(=O)c2cc(NC(=O)[C@H]3[C@H](c4ccc(F)c(C(F)F)c4)C3(Cl)Cl)ccc2Cl)c1F` (relative stereo) [F1036, trans-N-(3-Amino-2,4-difluorophenyl)-2-chloro-5-(2,2-dichloro-3-(3-(difluoromethyl)-4-fluorophenyl)cyclopropane-1-carboxamido)benzamide], the pest or weed control at 50 µg/cm2 in test [1] (setting [3]) and in test [2] (setting [4]) was 50 to 100% each time.

As for `COCCN(C(=O)OC(C)(C)C)c1ccc(NC(=O)c2cc(NC(=O)[C@H]3[C@H](c4cc(Cl)cc(Cl)c4)C3(Cl)Cl)ccc2Cl)c(C)c1` (relative stereo) [F1159, trans-tert-Butyl-(4-(2-chloro-5-(2,2-dichloro-3-(3,5-dichlorophenyl)cyclopropane-1-carboxamido)benzamido)-3-methylphenyl)(2-methoxyethyl)carbamate], the pest or weed control at 50 µg/cm2 in test [1] (setting [3]) and in test [2] (setting [4]) was 50 to 100% throughout.

Consider `Cc1cc(NC(=O)[C@H]2[C@H](c3ccc(Cl)c(Cl)c3)C2(Cl)Cl)cc(C(=O)Nc2cc(NC(=O)C(F)(F)F)c(F)cc2F)c1Cl` [F1497, 2-Chloro-5-((1R,3R)-2,2-dichloro-3-(3,4-dichlorophenyl)cyclopropane-1-carboxamido)-N-(2,4-difluoro-5-(2,2,2-trifluoroacetamido)phenyl)-3-methylbenzamide], for which the pest or weed control at 50 µg/cm2 in test [1] (setting [5]) and in test [2] (setting [6]) was 50 to 100% each time.

With `N#CC1(C(=O)Nc2c(F)ccc(NC(=O)c3cc(NC(=O)[C@H]4[C@H](c5ccc(Cl)c(Cl)c5)C4(Cl)Cl)ccc3Cl)c2F)CC1` [F1609, 2-Chloro-N-(3-(1-cyanocyclopropane-1-carboxamido)-2,4-difluorophenyl)-5-((1R,3R)-2,2-dichloro-3-(3,4-dichlorophenyl)cyclopropane-1-carboxamido)benzamide], the pest or weed control at 50 µg/cm2 in test [1] (setting [5]) and in test [2] (setting [6]) was 50 to 100% each time.

As to `Cc1cc(NC(=O)[C@H]2[C@H](c3ccc(F)c(C(F)(F)F)c3)C2(Cl)Cl)cc(C(=O)Nc2cc(N)c(F)cc2F)c1Cl` [F1478, N-(5-Amino-2,4-difluorophenyl)-2-chloro-5-((1R,3R)-2,2-dichloro-3-(4-fluoro-3-(trifluoromethyl)phenyl)cyclopropane-1-carboxamido)-3-methylbenzamide], the pest or weed control at 50 µg/cm2 in test [1] (setting [5]) and in test [2] (setting [6]) was 50 to 100% each time.

In the case of `O=C(Nc1c(F)ccc(NC(=O)C(F)(F)F)c1F)c1cc(NC(=O)[C@H]2[C@H](c3cc(Cl)cc(Cl)c3)C2(Cl)Cl)cc(F)c1Cl` [F1340, 2-Chloro-5-((1R,3R)-2,2-dichloro-3-(3,5-dichlorophenyl)cyclopropane-1-carboxamido)-N-(2,6-difluoro-3-(2,2,2-trifluoroacetamido)phenyl)-3-fluorobenzamide], the pest or weed control at 50 µg/cm2 in test [1] (setting [3]) and in test [2] (setting [4]) was 50 to 100% throughout.

As to `O=C(Nc1c(F)cc(F)cc1F)c1cc(NC(=O)[C@H]2[C@H](c3cc(Cl)cc(Cl)c3)C2(Cl)Cl)ccc1Cl` (single isomer, unassigned) [F1377], the pest or weed control at 50 µg/cm2 in test [1] (setting [3]) and in test [2] (setting [4]) was 50 to 100% throughout.

Turning to `CCOC(=O)Nc1c(F)ccc(NC(=O)c2cc(NC(=O)[C@H]3[C@H](c4ccc(Cl)c(Cl)c4)C3(Cl)Cl)ccc2Cl)c1F` [F1476, Ethyl (3-(2-chloro-5-((1R,3R)-2,2-dichloro-3-(3,4-dichlorophenyl)cyclopropane-1-carboxamido)benzamido)-2,6-difluorophenyl)carbamate], the pest or weed control at 50 µg/cm2 in test [1] (setting [5]) and in test [2] (setting [6]) was 50 to 100% throughout.

For `O=C(Nc1c(F)ccc(NC(=O)c2cc(NC(=O)[C@H]3[C@H](c4ccc(F)c(C(F)(F)F)c4)C3(Cl)Cl)ccc2Cl)c1F)c1ccc(F)nc1` [F1258, N-(3-(2-Chloro-5-((1R,3R)-2,2-dichloro-3-(4-fluoro-3-(trifluoromethyl)phenyl)cyclopropane-1-carboxamido)benzamido)-2,6-difluorophenyl)-6-fluoronicotinamide], the pest or weed control at 50 µg/cm2 in test [1] (setting [3]) and in test [2] (setting [4]) was 50 to 100% throughout.

The values above are taken from patent US20250228239A1, “MOLECULES HAVING PESTICIDAL UTILITY, AND INTERMEDIATES, COMPOSITIONS, AND PROCESSES, RELATED THERETO” (priority 2024, published 2025).
